According to BigSolDB 2.1:

C=CC(=O)Nc1cc(F)c(Br)c(F)c1
Settings | solubility (mole fraction)
in acetonitrile, 284.65 K | 0.006
in acetonitrile, 291.45 K | 0.0079
in acetonitrile, 294.75 K | 0.009
in acetonitrile, 298.25 K | 0.0104
in acetonitrile, 301.85 K | 0.0121
in acetonitrile, 305.35 K | 0.0139
in acetonitrile, 308.45 K | 0.0158
in acetonitrile, 312.75 K | 0.0186
in acetonitrile, 316.65 K | 0.0217
in acetonitrile, 320.05 K | 0.0248
in acetonitrile, 323.85 K | 0.0288
in acetonitrile, 327.65 K | 0.0332
in acetonitrile, 331.75 K | 0.0386
in acetonitrile, 334.15 K | 0.0423
in acetonitrile, 337.75 K | 0.0482
in acetonitrile, 340.45 K | 0.0533
in acetonitrile, 343.55 K | 0.0596
in acetonitrile, 346.35 K | 0.0662
in acetonitrile, 348.95 K | 0.0725
in benzene, 296.35 K | 0.0007
in benzene, 302.95 K | 0.0011
in benzene, 308.75 K | 0.0014
in benzene, 310.75 K | 0.0015
in benzene, 317.65 K | 0.0022
in benzene, 324.25 K | 0.003
in benzene, 332.05 K | 0.0044
in benzene, 335.95 K | 0.0054
in benzene, 340.85 K | 0.0067
in benzene, 347.05 K | 0.0094
in ethanol, 295.25 K | 0.0251
in ethanol, 297.65 K | 0.0264
in ethanol, 301.55 K | 0.0292
in ethanol, 309.25 K | 0.0351
in ethanol, 312.95 K | 0.0384
in ethanol, 318.55 K | 0.044
in ethanol, 326.45 K | 0.0534
in ethanol, 331.35 K | 0.0604
in ethanol, 334.85 K | 0.0659
in ethanol, 339.55 K | 0.074
in ethanol, 344.45 K | 0.0838
in ethanol, 347.55 K | 0.0905
in methanol, 294.25 K | 0.0142
in methanol, 298.65 K | 0.0163
in methanol, 303.16 K | 0.0189
in methanol, 308.45 K | 0.0221
in methanol, 312.35 K | 0.0249
in methanol, 318.15 K | 0.0298
in methanol, 321.05 K | 0.0325
in methanol, 324.65 K | 0.036
in methanol, 327.45 K | 0.0391
in methanol, 328.95 K | 0.041
in pyridine, 288.95 K | 0.139
in pyridine, 292.45 K | 0.145
in pyridine, 298.95 K | 0.157
in pyridine, 303.85 K | 0.166
in pyridine, 310.25 K | 0.178
in pyridine, 317.05 K | 0.193
in pyridine, 322.55 K | 0.205
in pyridine, 328.45 K | 0.219
in pyridine, 333.15 K | 0.23
in pyridine, 338.25 K | 0.243
in pyridine, 344.95 K | 0.262
in pyridine, 348.85 K | 0.273
in toluene, 286.65 K | 0.0006
in toluene, 291.95 K | 0.0008
in toluene, 292.05 K | 0.0008
in toluene, 295.95 K | 0.0009
in toluene, 301.75 K | 0.0011
in toluene, 301.85 K | 0.0012
in toluene, 307.95 K | 0.0015
in toluene, 312.05 K | 0.0019
in toluene, 316.05 K | 0.0022
in toluene, 319.25 K | 0.0026
in toluene, 323.75 K | 0.003
in toluene, 327.95 K | 0.0035
in toluene, 331.15 K | 0.0043
in toluene, 334.65 K | 0.0051
in toluene, 337.65 K | 0.0059
in toluene, 342.35 K | 0.0069
